Results taken from US20190367516A1 (Bayer Pharma Aktiengesellschaft, priority 2015, published 2019).
pEC50: −log10 of the molar value. Like-named read-outs stand apart in the source and are kept apart here.

Molecular target: T1, human M2 receptor (Homo sapiens, UniProt P08172)
T1 sequence (P08172 1-466): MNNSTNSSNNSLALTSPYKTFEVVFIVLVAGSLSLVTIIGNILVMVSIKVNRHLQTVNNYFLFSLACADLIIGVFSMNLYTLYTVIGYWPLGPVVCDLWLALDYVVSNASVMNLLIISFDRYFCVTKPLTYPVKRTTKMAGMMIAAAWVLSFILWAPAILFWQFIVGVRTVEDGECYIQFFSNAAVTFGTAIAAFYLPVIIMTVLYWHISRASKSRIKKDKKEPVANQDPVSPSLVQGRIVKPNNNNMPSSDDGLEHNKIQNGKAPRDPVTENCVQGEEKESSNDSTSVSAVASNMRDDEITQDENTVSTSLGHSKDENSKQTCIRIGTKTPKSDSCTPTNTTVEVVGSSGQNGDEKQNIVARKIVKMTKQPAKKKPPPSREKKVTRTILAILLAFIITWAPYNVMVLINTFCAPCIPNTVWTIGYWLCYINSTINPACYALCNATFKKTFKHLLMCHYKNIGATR
Conditions: for Emax: read-out: Efficiency, boosting of the acetylcholine effect at EC20 acetylcholine concentration; for Efficiency: boosting of the acetylcholine effect at EC20 acetylcholine concentration

[1] = Receptor activity EC50, M2-GIRK1/4 activation test, acetylcholine at EC20, allosteric potency, in some cases mean values from two or more determinations
[2] = Receptor activity EC50, allosteric potency at EC20 acetylcholine, M2-GIRK1/4 reporter cells, in some cases mean of two or more determinations

| pEC50 [1] | pEC50 [2] | Emax (M2-GIRK1/4 reporter cells) | Efficiency (M2-GIRK1/4 reporter cells) | Compound |
| --- | --- | --- | --- | --- |
| 7.14 |  |  |  | C[C@H](NC(=O)c1cn(-c2c(F)cccc2F)c2nc(N3CC4CC4(O)C3)ccc2c1=O)C(F)(F)F (single isomer, unassigned) [Example 312] |
| 7.15 |  |  |  | C[C@H](NC(=O)c1cn(-c2c(F)cccc2F)c2nc(N3CC4CC4(O)C3)ccc2c1=O)C(F)(F)F (single isomer, unassigned) [Example 313] |
| 7.59 |  |  |  | C[C@H](NC(=O)c1cn(-c2c(F)cc(F)cc2F)c2nc(N3CC4CC4(O)C3)ccc2c1=O)C(F)(F)F (single isomer, unassigned) [Example 317] |
| 7.85 |  |  |  | C[C@H](NC(=O)c1cn(-c2c(F)cc(F)cc2F)c2nc(N3CC4CC4(O)C3)ccc2c1=O)C(F)(F)F (single isomer, unassigned) [Example 318] |
| 8.22 |  |  |  | CC(C)(CC(F)(F)F)NC(=O)c1cn(-c2c(F)cc(F)cc2Cl)c2nc(N3C[C@@H](O)[C@H](O)C3)ccc2c1=O (single isomer, unassigned) [Example 392] |
| 6.90 |  |  |  | CC(C)(CC(F)(F)F)NC(=O)c1cn(-c2c(F)cc(F)cc2Cl)c2nc(N3C[C@@H](O)[C@H](O)C3)ccc2c1=O (single isomer, unassigned) [Example 393] |
|  | 7.68 | 100% |  | CCC(COC(F)(F)F)NC(=O)c1cn(-c2c(F)cc(F)cc2F)c2nc(N3C[C@@H](O)CC3=O)ccc2c1=O (single isomer, unassigned) [Example 411] |
|  | 5.50 |  | 53.5% | CC[C@H](NC(=O)c1cn(-c2c(F)cc(F)cc2Cl)c2nc(N3CCC(C)C3=O)ccc2c1=O)C(F)(F)F (single isomer, unassigned) [Example 423] |
|  | 7.72 | 91.5% |  | CC[C@@H](NC(=O)c1cn(-c2ccc(F)cc2F)c2nc(N3C(=O)CCC3C)ccc2c1=O)C(F)(F)F (single isomer, unassigned) [Example 427] |
|  | 7.14 |  | 86.0% | CC[C@@H](NC(=O)c1cn(-c2ccc(F)cc2F)c2nc(N3C(=O)CCC3C)ccc2c1=O)C(F)(F)F (single isomer, unassigned) [Example 428] |
|  | 6.77 |  | 100.0% | CC[C@@H](NC(=O)c1cn(-c2ccc(F)cc2F)c2nc(N3CC(C)NC3=O)ccc2c1=O)C(F)(F)F (single isomer, unassigned) [Example 433] |
|  | 7.64 |  | 98.5% | O=C(NC(CC(F)(F)F)C1CC1)c1cn(-c2c(F)cc(F)cc2F)c2nc(N3C[C@@H](O)[C@H](O)C3)ccc2c1=O (single isomer, unassigned) [Example 440] |
|  | 8.00 | 100% |  | CC(NC(=O)c1cn(-c2c(F)cc(F)cc2F)c2nc(N3C[C@@H](O)[C@H](O)C3)ccc2c1=O)(C1CC1)C(F)(F)F (single isomer, unassigned) [Example 442] |
|  | 7.62 | 93% |  | CCC1CCN(c2ccc3c(=O)c(C(=O)N[C@@H](C4CC4)C(F)(F)F)cn(-c4c(F)cc(F)cc4F)c3n2)C(=O)N1 (single isomer, unassigned) [Example 447, N-[(1 S)-1-Cyclopropyl-2,2,2-trifluoroethyl]-7-[4-ethyl-2-oxotetrahydropyrimidin-1(2H)-yl]-4-oxo-1-(2,4,6-trifluorophenyl)-1,4-dihydro-1,8-naphthyridine-3-carboxamide] |
|  | 8.40 | 95% |  | CC(NC(=O)c1cn(-c2c(F)cc(F)cc2F)c2nc(N3C[C@@H](C)NC3=O)ccc2c1=O)C(F)(F)C(F)(F)F (single isomer, unassigned) [Example 459] |
|  | 8.30 |  | 98.0% | CC(NC(=O)c1cn(-c2c(F)cc(F)cc2F)c2nc(N3C[C@@H](C)NC3=O)ccc2c1=O)C(F)(F)C(F)(F)F (single isomer, unassigned) [Example 460] |
|  | 6.89 | 82.5% |  | O=C(N[C@@H](C1CC1)C(F)(F)F)c1cn(-c2c(F)cc(F)cc2F)c2nc(N3CCOC(CO)C3)ccc2c1=O (single isomer, unassigned) [Example 464, N-[(1 S)-1-Cyclopropyl-2,2,2-trifluoroethyl]-7-[2-(hydroxymethyl)morpholin-4-yl]-4-oxo-1-(2,4,6-trifluorophenyl)-1,4-dihydro-1,8-naphthyridine-3-carboxamide] |
|  | 7.12 |  | 89.0% | O=C(N[C@@H](C1CC1)C(F)(F)F)c1cn(-c2c(F)cc(F)cc2F)c2nc(N3CCOC(CO)C3)ccc2c1=O (single isomer, unassigned) [Example 465, N-[(1 S)-1-Cyclopropyl-2,2,2-trifluoroethyl]-7-[2-(hydroxymethyl)morpholin-4-yl]-4-oxo-1-(2,4,6-trifluorophenyl)-1,4-dihydro-1,8-naphthyridine-3-carboxamide] |
|  | 8.22 | 100% |  | CCC(NC(=O)c1cn(-c2c(F)cc(F)cc2F)c2nc(N3C[C@@H](O)CC3=O)ccc2c1=O)C(C)C (single isomer, unassigned) [Example 485] |
|  | 8.40 |  | 100.0% | CCC(NC(=O)c1cn(-c2c(F)cc(F)cc2F)c2nc(N3C[C@@H](O)CC3=O)ccc2c1=O)C(C)C (single isomer, unassigned) [Example 486] |
|  | 8.15 | 88% |  | CC(NC(=O)c1cn(-c2c(F)cc(F)cc2F)c2nc(N3C[C@@H](O)CC3=O)ccc2c1=O)(C1CC1)C(F)(F)F (single isomer, unassigned) [Example 509] |

Continued, molecule first:

| Compound | pEC50 [1] | pEC50 [2] | Emax (M2-GIRK1/4 reporter cells) | Efficiency (M2-GIRK1/4 reporter cells) |
| --- | --- | --- | --- | --- |
| O=C(NC(c1c(F)cccc1F)C(F)(F)F)c1cn(-c2ccc(F)cc2F)c2nc(N3CCCC(O)C3=O)ccc2c1=O (single isomer, unassigned) [Example 251, 1-(2,4-Difluorophenyl)-N-[1-(2,6-difluorophenyl)-2,2,2-trifluoroethyl]-7-[3-hydroxy-2-oxopiperidin-1-yl]-4-oxo-1,4-dihydro-1,8-naphthyridine-3-carboxamide] | 6.79 |  |  |  |
| O=C(NC(c1c(F)cccc1F)C(F)(F)F)c1cn(-c2ccc(F)cc2F)c2nc(N3CCC(O)CC3=O)ccc2c1=O (single isomer, unassigned) [Example 253, 1-(2,4-Difluorophenyl)-N-[1-(2,6-difluorophenyl)-2,2,2-trifluoroethyl]-7-[4-hydroxy-2-oxopiperidin-1-yl]-4-oxo-1,4-dihydro-1,8-naphthyridine-3-carboxamide] | 6.32 |  |  |  |
| O=C(NC(c1c(F)cccc1F)C(F)(F)F)c1cn(-c2ccc(F)cc2F)c2nc(N3CCC(O)CC3=O)ccc2c1=O (single isomer, unassigned) [Example 254, 1-(2,4-Difluorophenyl)-N-[1-(2,6-difluorophenyl)-2,2,2-trifluoroethyl]-7-[4-hydroxy-2-oxopiperidin-1-yl]-4-oxo-1,4-dihydro-1,8-naphthyridine-3-carboxamide] | 6.47 |  |  |  |
| O=C(NC(c1c(F)cccc1F)C(F)(F)F)c1cn(-c2ccc(F)cc2F)c2nc(N3CCC(O)CC3=O)ccc2c1=O (single isomer, unassigned) [Example 256, 1-(2,4-Difluorophenyl)-N-[1-(2,6-difluorophenyl)-2,2,2-trifluoroethyl]-7-[4-hydroxy-2-oxopiperidin-1-yl]-4-oxo-1,4-dihydro-1,8-naphthyridine-3-carboxamide] | 6.83 |  |  |  |
| CC[C@@H](NC(=O)c1cn(-c2ccc(F)cc2F)c2nc(N3CCOC(C(F)F)C3)ccc2c1=O)C(F)(F)F (single isomer, unassigned) [Example 264] | 6.28 |  |  |  |
| CC[C@@H](NC(=O)c1cn(-c2ccc(F)cc2F)c2nc(N3CCOC(C(F)F)C3)ccc2c1=O)C(F)(F)F (single isomer, unassigned) [Example 265] | 4.63 |  |  |  |
| CC[C@@H](NC(=O)c1cn(-c2ccccc2C(F)(F)F)c2nc(N3C[C@@H](O)CC3=O)ccc2c1=O)C(F)(F)F (single isomer, unassigned) [Example 269] | 6.68 |  |  |  |
| CC[C@@H](NC(=O)c1cn(-c2ccccc2C(F)(F)F)c2nc(N3C[C@@H](O)CC3=O)ccc2c1=O)C(F)(F)F (single isomer, unassigned) [Example 270] | 5.80 |  |  |  |
| CC[C@@H](NC(=O)c1cn(-c2c(F)cccc2F)c2nc(N3CCC(C)(O)C3)ccc2c1=O)C(F)(F)F (single isomer, unassigned) [Example 277] | 7.11 |  |  |  |
| O=C(NC(c1ccccc1Cl)C(F)(F)F)c1cn(-c2ccccc2F)c2nc(N3CCC(O)C3=O)ccc2c1=O (single isomer, unassigned) [Example 290] | 6.51 |  |  |  |
| O=C(NC(c1ccccc1Cl)C(F)(F)F)c1cn(-c2ccccc2F)c2nc(N3CCC(O)C3=O)ccc2c1=O (single isomer, unassigned) [Example 291] | 6.17 |  |  |  |
| CC[C@@H](NC(=O)c1cn(-c2c(F)cccc2F)c2nc(N3CCC(O)C3=O)ccc2c1=O)C(F)(F)F (single isomer, unassigned) [Example 293] | 7.14 |  |  |  |
| CC[C@@H](NC(=O)c1cn(-c2ccc(F)cc2F)c2nc(N3CC(C)CC3=O)ccc2c1=O)C(F)(F)F (single isomer, unassigned) [Example 302] | 7.77 |  |  |  |
| CC[C@@H](NC(=O)c1cn(-c2ccc(F)cc2F)c2nc(N3CC(C)CC3=O)ccc2c1=O)C(F)(F)F (single isomer, unassigned) [Example 303] | 7.22 |  |  |  |
